From publication PMC10868801, “Characterization of covalent inhibitors that disrupt the interaction between the tandem SH2 domains of SYK and FCER1G phospho-ITAM” (PLOS ONE, 2024)
≈ marks a conversion by molar mass, not a printed value. Entries after “also recorded” stand apart in the source; their conditions may differ.

Legend:
[1] = target: T1, SYK-tSH2 / FCER1G p-ITAM interaction (Homo sapiens, UniProt P43405); assay: TR-FRET assay of 6xHis-SYK-tSH2 with FITC-labeled FCER1G p-ITAM peptide; assay type: biochemical
T1 construct: the tSH2 domain of SYK (residues M6-N269) fused to an N-terminal 6×His tag; made in house; host or cells: E. coli BL21(DE3)-R3-pRARE
Source text: To facilitate identification of inhibitors of the SYK-FCER1G interaction, we developed a TR-FRET assay using recombinant protein comprising the tSH2 domain of SYK (residues M6-N269) fused to an N-terminal 6×His tag (S1A Fig). The TR-FRET assay is based on the interaction of a FITC-labeled FCER1G p-ITAM peptide to the 6×His-SYK-tSH2 protein in complex with a terbium-conjugated anti-His antibody (Tb-Ab) (Fig 3B). Once excited, a TR-FRET signal is generated from the Tb donor to the FITC acceptor fluorophore. […] To enable uHTS for large scale screening of small molecule libraries, we miniaturized the TR-FRET assay from 96-well plate format to a 1536-well.
TR-FRET experiments were performed in 20 μL reactions, using 384-well shallow-well microplates (PerkinElmer). Final reaction components contained 6xHis-SYK-tSH2 (SYKA-c020 tagged) (4 nM), FITC-conjugated FCER1G peptide (8 nM), Tb-conjugated anti-6xHis antibody (53 ng/ml; Cisbio) in assay buffer containing 25 mM HEPES (pH 7.5), 200 mM NaCl, 0.1% BSA and 0.05% Tween-20. After a 2h incubation (at room temperature), TR-FRET signals were measured on a BMG Labtech PHERAstar FSX reader using a Lanthascreen Optics Module. A 200 μs delay was used after excitation with a flash lamp before measurement of fluorescence emission at […]. TR-FRET ratios of fluorescent intensity at 520 nm to 490 nm were calculated. The half maximal inhibitory concentration (IC50) was determined by fitting a four parametric logistic curve to the data.

[2] = system: SYK-tSH2 domains with a doubly phosphorylated ITAM from a T-cell antigen receptor ζ-chain; parameters: method as in PMID 25287889; details: cited from earlier work
[3] = system: SYK-tSH2; parameters: method as in PMID 25287889; details: mass spectrometry; cited from earlier work
[4] = target: SYK-tSH2 (Homo sapiens, UniProt P43405); assay: Covalent labelling and intact mass spectrometry; assay type: binding; parameters: tandem SH2 domains of human SYK (residues M6-N269); 6xHis (N, cleaved yes); made in house; host or cells: E. coli BL21(DE3)-R3-pRARE; details: for Number of mass adducts on SYK-tSH2: 100 μM
Source text: The HTS hits 13 and 37 contain a kojic acid moiety, which is proposed to react covalently with proteins in the literature. As a result, we thought that it was likely these compounds are also reacting covalently with SYK-tSH2. […] When bound to the protein, these kojic acid-derived compounds have a 94 Da decrease in mass due to the loss of the pyridin-2-amine leaving group to reveal a Michael acceptor that can react covalently with cysteine residues (Fig 5B).
To expand on the initial 40 putative hits that were identified via uHTS (Fig 3D), additional commercially available structural analogues were ordered and screened via TR-FRET and differential scanning fluorimetry (DSF) (S1 Table). […] The observation of a substantial reduction in protein melting temperature motivated us to determine if the compounds interacted covalently with the SYK-tSH2 domains. Additionally, since the thiourea in these small molecules is reported to react via oxidation, the compounds could be capable of forming a covalent disulfide bond with cysteine residues on SYK [39]. We used compound 1, which is a known covalent modifier of SYK-tSH2, as a positive control in the mass spectrometry analysis. […] Literature reports support that this type of chemical reaction can occur in DMSO, forming a disulfide bond. […] Like we had originally observed for the older DMSO stock solution of 42 (Fig 6C), 44 forms two to four mass adducts (422 Da and 844 Da) more than the protein mass when incubated SYK-tSH2 for 1 h (Fig 6D). […] Due to the mass adducts of two to four (422 Da and 844 Da), we propose that 44 is forming a disulfide bond with between two or four cysteines on SYK-tSH2 (Fig 6G).

[5] = target: T2, full length SYK and FCER1G (Homo sapiens, UniProt P43405); assay: GST pull-down (GST-PD) of GST-SYK and FCER1G-Flag from HEK293T cell lysates; assay type: biochemical; details: dose-response format
T2 construct: full length GST-SYK and FCER1G-Flag were co-expressed in HEK293 cells prior to lysis; expressed in transfected cells; host or cells: HEK293T (CRL-3216, ATCC)
Experimental: Pull-down assays were used as an orthogonal assay to determine if the compounds could disrupt the PPI between full length SYK and FCER1G proteins from cell lysates. To optimize GST pulldown assays, full length GST-SYK and FCER1G-Flag were co-expressed in HEK293 cells prior to lysis and the protein expression and cell lysate concentrations tested (Fig 4A). All 40 compounds that progressed from uHTS were tested via GST-PD at a single concentration (100 μM) to determine if they could inhibit the PPI between the full-length proteins, with the p-ITAM FCER1G peptide used as a positive control (Fig 4B). […] Compound 24 contains a promiscuous maleimide, which is well known to react indiscriminately with proteins.
GST-, VF-tagged human SYK and FCER1G plasmids for mammalian expression were generated using Gateway cloning technology (Invitrogen) as described previously. The DNA was purified using ZymoPURE Plasmid Maxiprep Kit (D4203, Zymo Research).
WB secondary antibodies: peroxidase-conjugated AffiniPure Goat Anti-Mouse IgG (H+L) (115-035-003, Jackson Immuno Research) 1:5000 dilution in TBST. GST pulldown was performed as described with minor changes. HEK293T (CRL-3216, ATCC) were cultured in Dulbecco’s modified Eagle’s medium with 4.5 g/L glucose, L-glutamine, and sodium pyruvate (10–013-CV, Corning) supplemented with 10% fetal bovine serum and 1% penicillin/streptomycin solution (30–002-CI, CellGro). Cells were incubated at 37°C in humidified conditions with 5% CO2. The HEK293T cells were transfected using 1 mg/mL Polyethylenimine (PEI; 23966, Polysciences) in a ratio of 3 μL to 1 μg DNA. The proteins were expressed for 48 h at 37°C. Cell pellets were re-suspended in the SYK lysis buffer (25 mM HEPES, pH 7.5, 200 mM NaCl, 0.5% Triton X100 (T9284-1L, Sigma-Aldrich), followed by sonication for 10 s (5 s on, 5 s off) at 4°C. Cells were pelleted by 10 min centrifugation at 13,000 rpm at 4°C. The cleared lysates were first pre-incubated with compounds for 30 min and then incubated with glutathione sepharose 4B beads (17075605, Cytiva Sweden AB) at 4°C for 2 h with rotation. After the incubation, beads were washed three times with the SYK lysis buffer, eluted by boiling in sodium dodecyl sulfate-polyacrylamide gel electrophoresis (SDS–PAGE) loading buffer (1610737, Bio-Rad), and analyzed by western blotting.

[6] = Kinetic solubility (Analiza, Inc., CLND); assay type: physicochemical; details: phosphate buffered saline, aqueous buffer, kinetic from dmso stock, PBS pH 7.4, 24 h incubation, by Analiza
Experimental: Following 24 h incubation in a Millipore solubility filter plate, samples were vacuum filtered, and the filtrates collected for analysis. Filtrates were injected into the nitrogen detector for quantification via total chemiluminescent nitrogen determination (CLND). Filtrates were quantified with respect to a calibration curve generated using standards that span the dynamic range of the instrument. The reported solubility value has been corrected for background nitrogen present in the media and DMSO.

[7] = target: MSN (Homo sapiens, UniProt P26038); assay: Covalent labelling and intact mass spectrometry (selectivity); details: 1 h, room temperature
Sequence of MSN (P26038 whole entry, species assumed): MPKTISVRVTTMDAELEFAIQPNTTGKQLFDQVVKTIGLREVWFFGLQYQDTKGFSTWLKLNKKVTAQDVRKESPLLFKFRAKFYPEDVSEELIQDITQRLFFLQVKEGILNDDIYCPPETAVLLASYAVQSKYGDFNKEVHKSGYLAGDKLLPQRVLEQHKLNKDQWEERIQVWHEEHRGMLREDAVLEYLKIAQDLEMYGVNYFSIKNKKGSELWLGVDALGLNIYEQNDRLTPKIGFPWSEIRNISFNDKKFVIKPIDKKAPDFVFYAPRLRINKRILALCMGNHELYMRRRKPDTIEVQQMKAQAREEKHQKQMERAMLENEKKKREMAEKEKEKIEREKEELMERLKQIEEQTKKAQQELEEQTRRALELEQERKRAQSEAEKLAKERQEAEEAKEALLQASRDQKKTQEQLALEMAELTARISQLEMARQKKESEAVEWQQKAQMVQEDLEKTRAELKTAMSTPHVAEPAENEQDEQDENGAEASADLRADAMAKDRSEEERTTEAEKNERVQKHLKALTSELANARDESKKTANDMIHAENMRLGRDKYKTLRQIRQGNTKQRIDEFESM

SMILES | Interference with the TR-FRET assay [1] | Inhibition of p-ITAM binding with mutated SYK-tSH2 ([2]; Cys206 mutated to serine or alanine) | Disruption of SYK-tSH2 binding to doubly phosphorylated ITAM ([2]; fluorescence polarization inhibition assay) | Number of cysteines on SYK-tSH2 bound [3] | Number of mass adducts on SYK-tSH2 ([4]; 1 h, room temperature) | PPI disruption in GST-PD [5] | solubility kinetic at 24 h [6] [µM] | melting point [°C] | Mass adducts on MSN ([7]; 30 μM) | Number of mass adducts on MSN ([7]; 100 μM, four available cysteines) | Compound concentration giving 50% labeling of SYK-tSH2 ([4]; 10 μM SYK-tSH2, dose-response by mass spectrometry) [µM] | Mass adducts on SYK ([4]; 30 μM, 1 h, room temperature)
O=[N+]([O-])c1c(NCCO)cc(Cl)c2nonc12 [compound 1] | quenching the TR-FRET donor signal | complete loss of inhibition | disrupt the binding | 4 | one or two |  |  |  |  |  |  | 
Cn1c(=O)c2[nH]c(SSc3nc4c([nH]3)c(=O)n(C)c(=O)n4C)nc2n(C)c1=O [compound 44, 8,8’-disulfanediylbis(1,3-dimethyl-3,7-dihydro-1H-purine-2,6-dione)] |  |  |  |  | two to four | disrupted the PPI; also recorded: able to disrupt the full-length interaction | 70.9 (≈ 30 µg/mL) | > 300 | same formation of mass adducts as 100 μM incubation | two mass adducts | 30 | same formation of mass adducts as 100 μM incubation
